Reference: PubChem BioAssay (NCI)
“And” between values parts separate entries of the source, which are not always exact repeats. Equal entries are not always repeated.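 All cell lines were grown in 96-well plates and treated with compound for 48 hours. GI50: concentration for 50% inhibition of growth. At the TGI there is no net growth.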

Columns and labels:
Assay in all cases: NCI anticancer screen, dose series, 48 h
[1] = test system: A549 NSCLC
[2] = test system: KM12 colon
[3] = test system: EKVX NSCLC
[4] = test system: HT29 colon
[5] = test system: MDA-MB-435
[6] = test system: TK-10 renal
[7] = test system: MALME-3M melanoma
[8] = test system: SK-MEL-2 melanoma
[9] = test system: SR leukemia
[10] = test system: T-47D breast

Row | Compound | GI50 [1] | TGI [1] | GI50 [2] | TGI [2] | GI50 [3] | TGI [3] | GI50 [4] | TGI [4] | GI50 [5] | TGI [5] | GI50 [6] | TGI [6] | GI50 [7] | TGI [7] | GI50 [8] | TGI [8] | GI50 [9] | TGI [9] | GI50 [10] | TGI [10]
1 | CCN(CC)CCCCCCNc1cccc2cc(Br)cnc12 | 8.07 µM | 22.6 µM | 3.56 µM | 14.3 µM | 10.2 µM | 25.1 µM | 1.88 µM | 4.32 µM | 3.76 µM | 12.9 µM | 1.81 µM | 3.89 µM | 2.46 µM | 5.13 µM | 5.01 µM | 18 µM | 3.04 µM | 12.6 µM | 5.31 µM | 20 µM
2 | CC1CC(O)C(=O)C(O[C@@H]2C[C@@H]3CC[C@@H]4[C@H](CC[C@]5(C)C(C6=CC(=O)OC6)CC[C@]45O)[C@@]3(C=O)C[C@H]2O)O1 (stereo not given in full) |  | < 0.0199 µM |  | 0.44 µM |  | 0.0542 µM |  | 0.171 µM |  | 0.177 µM |  | 0.173 µM |  | 0.0708 µM |  |  |  | 0.0792 µM |  | 0.205 µM
3 | O=C(NCc1ccc(Cn2c(=O)sn(-c3ccccc3)c2=O)cc1)OCc1ccc2cccc(O)c2n1 | 1.51 µM | 3.87 µM | 1.54 µM | 3.02 µM | 1.5 µM | 3.05 µM | 0.556 µM | 2.08 µM | 0.709 µM | 2.03 µM | 0.571 µM | 1.62 µM | 1.48 µM | 2.86 µM | 1.46 µM | 3 µM | 0.383 µM | > 100 µM | 1.49 µM | 4.59 µM
4 | O=C1Nc2ccccc2/C1=C1\CCc2cc(O)ccc21 | 9.45 µM | > 25 µM | 1.01 µM | > 25 µM | 4.17 µM | > 25 µM | 9.77 µM | > 25 µM | 2.24 µM | > 25 µM | 10.7 µM | > 25 µM | 8.11 µM | > 25 µM | 9.99 µM | > 25 µM | 4.25 µM | > 25 µM | 6.35 µM | > 25 µM
5 | COC(=O)C1=COC(C)C2CN3CCc4c([nH]c5ccccc45)C3CC12 (stereo not given) | 37.6 µM and > 100 µM | > 100 µM | 17.8 µM and > 100 µM | 42.6 µM and > 100 µM | 17.8 µM and > 100 µM | 80.9 µM and > 100 µM | 13.8 µM and > 100 µM | 27.2 µM and > 100 µM |  | > 100 µM | 27.7 µM and > 100 µM | 88.5 µM and > 100 µM | 14.4 µM and 49.5 µM | 45.5 µM and > 100 µM | 20 µM and > 100 µM | 92.1 µM and > 100 µM | 12.6 µM and 27.8 µM | 39.2 µM and > 100 µM | 16.6 µM and > 100 µM | 67.3 µM and > 100 µM
6 | Nc1ccccc1O.O.O=C(O)C1[O][Sb][O]C1C(=O)O (stereo not given) | 54.7 µM | > 100 µM | > 66.2 µM | > 100 µM | 18.1 µM | 38.9 µM | 16.4 µM | > 56.2 µM | 16.5 µM | 30.8 µM | 18 µM | 32.4 µM | 1.65 µM | 4.97 µM | 15 µM | 32.1 µM | 2.42 µM | 50.6 µM | 12.2 µM | 34 µM
7 | COc1cc2c(/C=N\N=C(N)N)c[nH]c2cc1C | > 100 µM | > 100 µM | 14.9 µM | 28 µM | 28.3 µM | 88.5 µM | 18 µM | 37.1 µM | 17 µM | 33.2 µM | 38.4 µM | > 100 µM |  |  | 32.7 µM | > 100 µM | 16.5 µM | 30.1 µM | 11.7 µM | 27.9 µM
8 | O=C(Nc1cc(Nc2ncccc2-c2ncnc3nc[nH]c23)ccc1F)c1cc(C(F)(F)F)cc(C(F)(F)F)c1 | 3.05 µM | > 10 µM | 1.53 µM | 4.03 µM | 4.1 µM | > 10 µM | 0.446 µM | 4.03 µM | 0.996 µM | > 10 µM | 3.75 µM | > 10 µM | 0.152 µM | 0.542 µM | 0.355 µM | 2.41 µM | 2.09 µM | 5.67 µM | 4.24 µM | > 10 µM
9 | Cc1cc(Nc2nc(-c3cn(-c4ccc(Cl)cc4)nn3)nc3ccccc23)n[nH]1 | 11.4 µM | > 50 µM | 4.95 µM | > 50 µM |  |  | 23.5 µM | > 50 µM | 11.6 µM | > 50 µM | 6.69 µM | 39.3 µM | 10.8 µM | 30.1 µM | 8.23 µM | 29.8 µM | 8.78 µM | 40 µM | 13.1 µM | 42.3 µM
10 | Cc1cc(N/N=C/c2ccccn2)nc2ccccc12 | 0.361 µM | 12.3 µM | 0.508 µM | 14.9 µM |  |  | 0.605 µM | 13.1 µM | 0.679 µM | 15.9 µM | 0.674 µM | 20.6 µM | 0.842 µM | 10.2 µM | 4.89 µM | 19.6 µM | 0.308 µM | 5 µM | 0.376 µM | 15.9 µM
11 | CCCC(=O)C1=C(O)C(Cc2c(O)c(C)c(O)c(C(=O)CCC)c2O)=C(O)C(C)(C)C1=O |  | > 50 µM |  | > 50 µM |  | > 50 µM |  | > 50 µM |  | > 50 µM |  | > 50 µM |  |  |  | > 50 µM |  | 40.3 µM |  | > 50 µM
12 | COC(=O)c1cc2c(o1)-c1nccc3c1c(nc1ccccc13)C2=O | 4.66 µM | 21.1 µM | 3.77 µM | 16.7 µM | 14.9 µM | 35 µM | 8.01 µM | 24.8 µM | 0.538 µM | 1.81 µM | 22.9 µM | 52.2 µM | 1.89 µM | 5.96 µM |  |  | 0.519 µM | 2.51 µM | 1.88 µM | 6.9 µM
13 | COc1ccc(-c2ccc3c(N4CCOC[C@@H]4C)nc(N4CCOC[C@@H]4C)nc3n2)cc1CO | 0.0052 µM and 0.0253 µM | 1.78 µM and 0.57 µM | 0.00626 µM and 0.0449 µM | > 100 µM | 0.00504 µM and 0.0229 µM | 0.113 µM and 0.564 µM | 0.00674 µM and 0.0385 µM | > 10 µM and 5.9 µM | 0.00531 µM and 0.0227 µM | 0.0557 µM and 0.263 µM | 0.00484 µM and 0.0147 µM | 0.237 µM and 0.212 µM | 0.00289 µM and < 0.01 µM | 0.0203 µM and 0.0392 µM |  |  | 0.00529 µM and 0.027 µM | > 100 µM | 0.00158 µM and < 0.01 µM | 0.00844 µM and 0.0544 µM
14 | CC(C)(C)[Si](C)(C)OC1[C@@H](CNC(=O)NC(=O)CCl)O[C@@H](n2cnc3c(N)ncnc32)[C@H]1O[Si](C)(C)C(C)(C)C (stereo not given in full) | 2.1 µM | 7.72 µM | 0.897 µM | 1.98 µM |  |  | 0.585 µM | 1.43 µM | 0.798 µM | 1.56 µM | 1.39 µM | 3.63 µM | 0.98 µM | 1.96 µM | 1.04 µM | 2.01 µM | 0.162 µM | 0.562 µM | 1.03 µM | 2.13 µM
